Measurements published in the supplement of paper PMC10307832.

Tests used:
Experiment in all cases: relative viability (nuclei count vs DMSO), 5 days (fraction); higher = more cells survive
Zosuquidar + Linsitinib = compound: O[C@@H](COc1cccc2ncccc12)CN1CCN([C@@H]2c3ccccc3[C@@H]3[C@H](c4ccccc42)C3(F)F)CC1 [Zosuquidar] + C[C@]1(O)C[C@@H](c2nc(-c3ccc4ccc(-c5ccccc5)nc4c3)c3c(N)nccn32)C1 [Linsitinib] (partner 1 µM)
Outline: (§1)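 One day after seeding in 1536-well plates, lung cancer cell lines were dosed by pin tool. Dosing was either single-drug or a fixed anchor-drug dose plus five library-drug doses (not always all listed) in √10 steps. After 5 days, nuclei were stained in one fix-and-stain step and counted on 4× images, and relative viability is the nuclei count of treated wells over that of vehicle wells, given as the median of duplicate plates.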

Zosuquidar + Navitoclax = compound: O[C@@H](COc1cccc2ncccc12)CN1CCN([C@@H]2c3ccccc3[C@@H]3[C@H](c4ccccc42)C3(F)F)CC1 [Zosuquidar] + CC1(C)CCC(c2ccc(Cl)cc2)=C(CN2CCN(c3ccc(C(=O)NS(=O)(=O)c4ccc(N[C@H](CCN5CCOCC5)CSc5ccccc5)c(S(=O)(=O)C(F)(F)F)c4)cc3)CC2)C1 [Navitoclax] (partner 0.5 µM)
Outline: as §1

Cabozantinib + Olaparib = compound: COc1cc2nccc(Oc3ccc(NC(=O)C4(C(=O)Nc5ccc(F)cc5)CC4)cc3)c2cc1OC [Cabozantinib] + O=C(c1cc(Cc2n[nH]c(=O)c3ccccc23)ccc1F)N1CCN(C(=O)C2CC2)CC1 [Olaparib] (partner 8 µM)
Outline: as §1

Kobe2602 + Linsitinib = compound: C1=CC(=CC=C1NC(=S)NNC2=C(C=C(C=C2[N+](=O)[O-])C(F)(F)F)[N+](=O)[O-])F [Kobe2602] + C[C@]1(O)C[C@@H](c2nc(-c3ccc4ccc(-c5ccccc5)nc4c3)c3c(N)nccn32)C1 [Linsitinib] (partner 1 µM)
Outline: as §1

## UMC-11
Zosuquidar + Linsitinib; first compound 0.01 µM
  relative viability: 0.976
Zosuquidar + Linsitinib; first compound 0.03162 µM
  relative viability: 0.98
Zosuquidar + Linsitinib; first compound 0.1 µM
  relative viability: 1.05
Zosuquidar + Linsitinib; first compound 0.3162 µM
  relative viability: 1.07
Zosuquidar + Linsitinib; first compound 1 µM
  relative viability: 1.07
Zosuquidar + Navitoclax; first compound 0.01 µM
  relative viability: 0.323
Zosuquidar + Navitoclax; first compound 0.03162 µM
  relative viability: 0.294
Zosuquidar + Navitoclax; first compound 0.1 µM
  relative viability: 0.341
Zosuquidar + Navitoclax; first compound 0.3162 µM
  relative viability: 0.339
Zosuquidar + Navitoclax; first compound 1 µM
  relative viability: 0.292
Cabozantinib + Olaparib; first compound 0.02 µM
  relative viability: 0.399
Cabozantinib + Olaparib; first compound 0.06325 µM
  relative viability: 0.304
Cabozantinib + Olaparib; first compound 0.2 µM
  relative viability: 0.502
Cabozantinib + Olaparib; first compound 0.6325 µM
  relative viability: 0.312
Cabozantinib + Olaparib; first compound 2 µM
  relative viability: 0.391
Kobe2602 + Linsitinib; first compound 0.2 µM
  relative viability: 1
Kobe2602 + Linsitinib; first compound 0.6325 µM
  relative viability: 1.06
Kobe2602 + Linsitinib; first compound 2 µM
  relative viability: 0.997
Kobe2602 + Linsitinib; first compound 6.325 µM
  relative viability: 0.996
Kobe2602 + Linsitinib; first compound 20 µM
  relative viability: 0.947
